The text below walks through data of ChEMBL document CHEMBL1135960 (Bioorg Med Chem Lett, 2002).

SMILES strings stand for the structures. Calls of active or inactive are those of the source. The calls are words filed in the database; no cut-off is given here.

The target in test [1] is T1, Serotonin 3 (5-HT3) receptor (Homo sapiens) (UniProt P46098+A5X5Y0+O95264+Q70Z44+Q8WXA8). As to the kind of experiment: Intrinsic activity towards 5-hydroxytryptamine 3 receptor was determined by Benzold-Jarisch reflex (peripheral assay); A: agonist. In kind it is functional. To be noted: filed as agonist.
Test [2] addresses Serotonin 3 (5-HT3) receptor. Put plainly: Binding affinity towards 5-hydroxytryptamine 3 receptor. Format: protein-complex assay.
Test [3] deals with T1, Serotonin 3 (5-HT3) receptor (Homo sapiens). Put plainly: Intrinsic activity towards CNS 5-hydroxytryptamine 3 receptor was determined; A: agonist. In kind it is functional. To be noted: filed as agonist.
The target is the same in test [4]. Put plainly: Intrinsic activity towards CNS 5-hydroxytryptamine 3 receptor was determined; ANT: Antagonist. Format: functional. To be noted: filed as antagonist.
In test [5] the test system is Serotonin 3 (5-HT3) receptor. Put plainly: Binding affinity of compound towards 5-hydroxytryptamine 3 receptor; NA: not active. Format: protein-complex assay.
Test [6] deals with T1, Serotonin 3 (5-HT3) receptor (Homo sapiens). As to the kind of experiment: Intrinsic activity towards CNS 5-hydroxytryptamine 3 receptor was determined; NA: not active. In kind it is protein-complex assay.
For test [7] the target is unchanged. As to the kind of experiment: Intrinsic activity towards 5-hydroxytryptamine 3 receptor was determined by Benzold-Jarisch reflex (peripheral assay); ANT: antagonist. In kind it is functional. To be noted: filed as antagonist.
For test [8] the target is unchanged. Put plainly: Intrinsic activity towards 5-hydroxytryptamine 3 receptor was determined by Benzold-Jarisch reflex (peripheral assay); PA: Partial agonist. Format: functional. The note with it: filed as partial agonist.

In general, Ki refers to the equilibrium dissociation constant of an inhibitor or competing ligand from its target.

With `N=C(N)Nc1ccc2ccccc2c1`, the Intrinsic activity result in test [1] was “Agonist”.
As for `CN1CCN(c2nc3ccccc3c3c2CCCC3)CC1`, the Ki in test [2] came to 0.23 nM.
Regarding `N=C(N)NC(=N)Nc1cccc(Cl)c1`, the Intrinsic activity entry in test [3] and in test [1] was “Agonist” in each case.
As to `N=C(N)Nc1cccc(Cl)c1`, the Intrinsic activity entry in test [1] was “Agonist”.
`CN1CCN(c2nc3ccccc3c3c2CC2CCC3C2)CC1` (stereo not drawn): the Intrinsic activity entry in test [4] was “Antagonist”. The compound also came in with a Ki in test [2] of 0.83 nM.
Turning to `CN1CCN(c2cc3cc(C(F)(F)F)ccc3n3cccc23)CC1`, in test [5], the Ki entry is “Not Active”. Moreover, the Intrinsic activity entry in test [6] is “inactive”. In test [7], the Intrinsic activity entry is “Antagonist”.
Regarding `Cc1[nH]c2ccc(O)cc2c1CCN`, the Intrinsic activity result in test [3] and in test [1] was “Agonist” throughout.
As to `NCCc1c[nH]c2ccc(O)cc12`, the Intrinsic activity result in test [3] and in test [1] was “Agonist” each time.
For `NC1CCN(c2cccc(Cl)n2)CC1`, in test [3], the Intrinsic activity result is “Agonist”. In test [2], this compound yielded a Ki of 103 nM.
Consider `Clc1ccc2ccc(N3CCNCC3)nc2c1`, for which, in test [7], the Intrinsic activity entry is “Antagonist”. The same compound registered a Ki in test [2] of 38 nM.
As to `c1ccc2nc(N3CCNCC3)ccc2c1`, the Intrinsic activity result was “Partial agonist” in test [8] and “Agonist” in test [3].
For `N=C(N)NC(=N)Nc1ccc2ccccc2c1`, the Intrinsic activity entry in test [1] is “Agonist”.
On to `CN1CCN(c2nc3ccccc3c3ccccc23)CC1`, for which the Intrinsic activity result in test [3] is “Agonist”. This compound also displayed a Ki in test [2] of 1.9 nM.
Regarding `N=C(N)NC(=N)Nc1ccccc1`, the Intrinsic activity result in test [3] and in test [1] was “Agonist” in each case.
`CN1CCN(c2cc3cc(F)ccc3n3cccc23)CC1`: the values for the Intrinsic activity entry in test [3] and in test [7] were “Agonist” and “Antagonist”, respectively. In test [2], this compound came in with a Ki of 0.51 nM.
The corresponding values for `CN1CCN(c2nc3ccccc3n3cccc23)CC1` are “Agonist”, “Antagonist” and 0.23 nM.
As to `O=[N+]([O-])c1ccc2nc(N3CCNCC3)ccc2c1` [6-NITROQUIPAZINE], in test [7], the Intrinsic activity result is “Antagonist”. This compound also gave a Ki in test [2] of 58 nM.
